Six compounds from patent US20230190736A1, “SMALL MOLECULE THERAPEUTICS FOR THE TREATMENT OF VIRAL INFECTIONS” (priority 2020, published 2023) can be followed below.

Each structure is given as a SMILES string. Like-named read-outs stand apart in the source and are kept apart here.

Holding throughout (assay type): cell-based
Data set [1] concerns SARS-CoV-2. Briefly: microbe, parasite or virus in culture. To be noted: Severe acute respiratory syndrome coronavirus 2; secondary screen, doses 2.5, 25, 250 and 500 nM, immunofluorescent assay; read-out: IC50 anti SARS-CoV-2 activity.
The subject of data set [2] is human lung stem cell derived Air-liquid interface (ALI) cells. Description: Cell Titer glo viability assay in air-liquid interface (ALI) cultures. The following applies: up to 50 μM, 48 hours post treatment. The method, then:
Series 1 and 2 are the values from independent wells.
Berzosertib was tested in a primary human lung tissue culture system consisting of mucociliary air-liquid interface (ALI) cultures derived from primary human proximal airway basal stem cells (ABSCs). 24-well 6.5 mm trans-wells with […] polyester membrane inserts were used for culturing ALI cells. 500 μl ALI media (PneumaCult-ALI Medium, […] Technologies) was used in the basal chamber for ALI cultures and cells were cultured at 37° C. with 5% CO2. […] Control cells were treated with the solvent DMSO. 48 hours post drug treatment, the cells were subjected to viability assay using Cell Titer glo kit.
Background: In ATP-based viability assays light output follows the ATP content of the culture.

The test system of data set [3] is SARS-CoV-2. Description: microbe, parasite or virus in culture.
Data set [4] has as its system SARS-CoV-2. To be noted: Compound A 50 nM, Compound B 50 nM; higher is better.
Data set [5] deals with SARS-CoV-2. Description: mTORC1 inhibition of SARS-CoV-2 replication in Vero cells (fluorescence microscopy). To be noted: 25 nM, 72 hours.
The subject of data set [6] is SARS-CoV-2. The following applies: 10 um, 1 hour pretreatment, MOI 1, 48 hpi.

By IC50 is commonly meant the midpoint of a concentration-inhibition curve. With `CNCc1ccc(-c2cc(-c3nc(-c4ccc(S(=O)(=O)C(C)C)cc4)cnc3N)on2)cc1` [Berzosertib], the 50% inhibitory concentration (IC50) in the data set on SARS-CoV-2 [1] was determined as 25 nM; in the data set with SARS-CoV-2 [3] (Severe acute respiratory syndrome coronavirus 2, read-out: IC50 inhibiting SARS-CoV-2 determined by RTQPCR) it was 40 nM. For the same compound, the “effect on cell viability” value in data set [2] is “did not have any deleterious effect on cell viability”; in data set [2] (listed as berzosertib), “non-toxic and safe”. Also, the “inhibition of virus positive cells” value with SARS-CoV-2 [3] was “over 70%”.
On to `COc1ccc(CC(C)NCC(O)c2ccc(O)c(NC=O)c2)cc1` (stereo not drawn) [Empty-Formoterol, Formoterol], for which, in the data set with SARS-CoV-2 [4], the “Cell Number: Cell Nuclei Counts” value was 8390.
As to `OCc1cc(C(O)CNCCCCCCOCCCCc2ccccc2)ccc1O` (stereo not drawn) [Empty-Salmeterol, Salmeterol], the “Cell Number: Cell Nuclei Counts” value with SARS-CoV-2 [4] is 8193.
In the case of `Cc1cn(-c2cc(NC(=O)c3ccc(C)c(Nc4nccc(-c5cccnc5)n4)c3)cc(C(F)(F)F)c2)cn1` [Nilotinib], the IC50 in the data set on SARS-CoV-2 [1] is 250 to 500 nM.
On to `CNC(=O)c1cccc(-c2ccc3c(N4CCOC[C@@H]4C)nc(N4CCOC[C@@H]4C)nc3n2)c1` [Vistusertib], for which the IC50 in the data set with SARS-CoV-2 [1] is 25 nM. Further, the “presence of viral dsRNA” value with SARS-CoV-2 [5] is “almost completely abolished”.
As for `CCN(CCO)CCCC(C)Nc1ccnc2cc(Cl)ccc12` (stereo not drawn) [hydroxychloroquine], the “inhibition of SARS-CoV-2 infection (dsRNA immunostaining)” value in the data set with SARS-CoV-2 [6] is recorded as “efficiently inhibited SARS-CoV-2 infection”; in the data set on SARS-CoV-2 [6] (listed as HQ) it was “effectively blocked SARS-CoV-2 infection”.
